Test results reported in US20230173067A1 (Seagen Inc., priority 2020, published 2023).

Key:
[1] = test system: CTG-0927 HER2 positive cholangiocarcinoma PDX model; assay: CTG-0927 HER2 positive cholangiocarcinoma PDX model, tumor growth inhibition; assay type: in vivo, Mice; conditions: CTG-0927 cholangiocarcinoma PDX model
Method: (§1) The TGI index is calculated for a particular time point (e.g., a specific number of days into an experiment or clinical trial) according to the following formula: […]
(§2) where “Tx Day 0” denotes the first day that treatment is administered (i.e., the first day that an experimental therapy or a control therapy (e.g., vehicle only) is administered) and “Tx Day X” denotes X number of days after Day 0. […] As a non-limiting example, in an experiment where study day 0 corresponds to “Tx Day 0” and the TGI index is calculated on study day 28 (i.e., “Tx Day 28”), if the mean tumor volume in both groups on study day 0 is 250 mm^3 and the mean tumor volumes in the experimental and control groups are 125 mm^3 and 750 mm^3, respectively, then the TGI index on day 28 is 125%.
(§3) Tucatinib was administered orally at a dose of 50 mg/kg twice per day for 28 days (study days 0-27). […] A vehicle-only group was included as a negative control.

[2] = test system: GXA 3054 gastric cancer PDX model; assay: GXA 3054 HER2 positive gastric cancer PDX model, tumor growth inhibition; assay type: in vivo, Mice
Method: as §1, §2, §3

[3] = test system: CTG-0137 esophageal cancer PDX model; assay: CTG-0137 HER2 positive esophageal cancer PDX model, tumor growth inhibition; assay type: in vivo, Mice
Method: as §1, §2, §3

CTG-0121 CRC PDX model = assay: CTG-0121 HER2 positive CRC PDX model, tumor growth inhibition; assay type: in vivo, Mice
Method: as §1, §2, §3

[4] = test system: CTG-0138 esophageal cancer PDX model; assay: CTG-0138 HER2 positive esophageal cancer PDX model, tumor growth inhibition; assay type: in vivo, Mice
Method: as §1, §2, §3

NCI-H2170 cells = assay: Response of NCI-H2170 cells to tucatinib in vitro; assay type: cell-based; conditions: previously demonstrated
CTG-0383 CRC PDX model = assay: CTG-0383 HER2 positive CRC PDX model, tumor growth inhibition; assay type: in vivo, Mice
Method: as §1, §2, §3

[5] = test system: Calu-3 NSCLC xenograft model; assay: Calu-3 HER2 positive NSCLC xenograft model, tumor growth inhibition; assay type: in vivo, Mice
Method: as §1, §2
(§4) For the Calu-3 study, tucatinib was administered orally at a dose of 50 mg/kg twice per day for 21 days, beginning on study day 7. […] A vehicle-only group was included as a negative control.

CTG-0784 CRC PDX model = assay: CTG-0784 HER2 positive CRC PDX model, tumor growth inhibition; assay type: in vivo, Mice
Method: as §1, §2, §3

[6] = test system: GXA 3038 gastric cancer PDX model; assay: GXA 3038 HER2 positive gastric cancer PDX model, tumor growth inhibition; assay type: in vivo, Mice
Method: as §1, §2, §3

Calu-3 cells = assay: Response of Calu-3 cells to tucatinib in vitro; assay type: cell-based; conditions: previously demonstrated
[7] = test system: GXA 3039 gastric cancer PDX model; assay: GXA 3039 HER2 positive gastric cancer PDX model, tumor growth inhibition; assay type: in vivo, Mice
Method: as §1, §2, §3

[8] = test system: NCI-H2170 NSCLC xenograft model; assay: NCI-H2170 HER2 positive NSCLC xenograft model, tumor growth inhibition; assay type: in vivo, Mice
Method: as §1, §2, §4
For the NCI-H2170 study, tucatinib was administered orally at a dose of 50 mg/kg twice per day for 21 days, beginning on study day 18. […] A vehicle-only group was included as a negative control.

## Cc1cc(Nc2ncnc3ccc(NC4=NC(C)(C)CO4)cc23)ccc1Oc1ccn2ncnc2c1 [Tucatinib, tucatinib]
[1]
  effect on tumor growth (in words): inhibited tumor growth
[2]
  effect on tumor growth (in words): inhibited tumor growth
[3]
  effect on tumor growth (in words): inhibited tumor growth
CTG-0121 CRC PDX model
  effect on tumor growth (in words): inhibited tumor growth
[4]
  effect on tumor growth (in words): inhibited tumor growth
NCI-H2170 cells
  response to tucatinib in vitro: good responses
CTG-0383 CRC PDX model
  effect on tumor growth (in words): inhibited tumor growth
[5]
  effect on tumor growth (in words): inhibited tumor growth
CTG-0784 CRC PDX model
  effect on tumor growth (in words): inhibited tumor growth
[6]
  effect on tumor growth (in words): inhibited tumor growth
Calu-3 cells
  response to tucatinib in vitro: good responses
[7]
  effect on tumor growth (in words): inhibited tumor growth
[8]
  effect on tumor growth (in words): inhibited tumor growth
